Data reported in patent US6559167B1, “Prodrugs of proton pump inhibitors” (Regents of the University of California, priority 1998, dated 2003).
Several values for one entry are separate records, joined by “and”; a condition that tells them apart may be missing. Identical values can stand only once.

Columns and labels:
[1] = Solubility in aqueous buffer; format: physicochemical
[2] = Acid stability in 95% methanol containing 0.1N HCl; format: physicochemical; settings: after 2.25 hour in 95% methanol containing 0.1N HCl
Procedure: Acid stability of the compounds was assayed in 95% methanol containing 0.1N HCl. Approximately 90% of the compound of Example 1 was still present intact (without decomposition) after 2.25 hour in this solution.

gastric H,K-ATPase = molecular target: T1, gastric H,K-ATPase (Sus scrofa, UniProt P19156); experiment: Inhibition of ATPase activity using isolated hog gastric vesicles; format: biochemical; settings: for inhibition of enzyme activity after 80 minutes: after 80 minutes at pH 7.4, 37° C.; for inhibition of gastric H,K-ATPase activity initially (before hydrolysis): 10, 20, 50, and 100 μM, pH 7.4, 37° C.
T1 construct: from tissue; host or cells: hog gastric vesicles (stomach mucosa)
From the text: By way of concrete examples, the following tests and results are described. […] This is consistent with the knowledge that the compounds obtained by hydrolysis e. g. LANSOPRAZOLE, OMEPRAZOLE, PANTOPRAZOLE and RABEPRAZOLE are well known H,K-ATPase inhibitors. […] Another good example is 2-(2-carbamoylmethoxy-4-{2-[4-(3-methoxypropoxy)-3-methyl pyridin-2-yl methylsulfinyl]benzimidazole-1-sulfonyl}phenoxy)acetamide. The half life of this compound dependes on pH. […] Based on these measured characteristics the compound 2-(2-carbamoylmethoxy-4-{2-[4-(3-methoxypropoxy)-3-methyl pyridin-2-yl methylsulfinyl]benzimidazole-1-sulfonyl}phenoxy)acetamide is expected to be well absorbed, and slowly release the parent RABEPRAZOLE in the blood, resulting in long-lasting in vivo activity. This compound can also be administered intravenously in an aqueous solution at pH 7.4 which solution may include 2-hydroxypropyl-β-cyclodextrin.
Inhibition of ATPase activity was measured using isolated hog gastric vesicles. The gastric H,K-ATPase (10 μg) was incubated at 37° C. in a solution (1 ml) composed of 0.25M sucrose, 20 mM Pipes/Tris, pH 7.4, 0.15M KCl, 2 mM MgCl2, valinomycin 2 μg/ml, and various concentration of compounds of the invention. At timed intervals, ATP was added (up to 2 mM) and incubated for 15 minutes and amount of released phosphate ion was measured. As a control experiment the prior art drug without a labile group on the benzimidazole nitrogen (e. g. OMEPRAZOLE or LANSOPRAZOLE) was used for measuring inhibition of enzyme activity.

[3] = Relative plasma concentration of OMEPRAZOLE in male rat after oral administration; settings: for Relative concentration of OMEPRAZOLE released in the plasma: male rat, examples 2 mg/kg, OMEPRAZOLE 4 mg/kg;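 as to all read-outs here: Sprague-Dawley rats fasted one day with water available, dosed orally with prodrug compounds, OMEPRAZOLE quantified by HPLC in plasma from serial blood draws, control given OMEPRAZOLE itself orally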
Procedure: Male adult rats of the Sprague-Dawley strain were used for determining the concentration of OMEPRAZOLE in the plasma. All rats were derived of food but not of water for one day. Examples of compounds of the invention (2 mg/kg of rat weight) were orally administrated to male rats (weighing 250 g to 270 g) and blood samples (0.3 ml) were taken at timed intervals. Blood samples were centrifuged and plasma was taken out. Plasma was extracted with 0.5 ml of dichloromethane. Dichloromethane layer was evaporated by nitrogen/air blowing. The residual materials were dissolved in 0.5 ml of 40% acetonitrile in 10 mM phosphate buffer (pH 7.4). Amounts of OMEPRAZOLE were determined by HPLC analysis. As a control, OMEPRAZOLE (4 mg/kg of rat weight) was orally administrated.

[4] = tested on: gastric acid secretion (histamine-stimulated acid output), pylorus-ligated male rats; experiment: Initial inhibition of gastric acid secretion after intraduodenal administration to pylorus-ligated rats; format: in vivo; settings: 10 μmole/kg, after pylorus ligation, histamine 30 mg/kg s.c., acid output over four hours, rat
Procedure: Histamine (30 mg/kg) was subcutaneously injected to stimulate acid production. The abdomen was surgically closed immediately. Four hours later the esophagus was ligated and the stomach was removed. Acid output was measured as described above.

[5] = tested on: gastric acid secretion of the conscious male rat; experiment: Inhibitory effect on gastric acid secretion of the conscious male rat at timed intervals after oral administration; format: in vivo; settings: between 5.5-8.5 hours after oral administration; 10 μmole/kg; histamine and carbachol stimulated; male rat
[6] = after 5.75 hr hydrolysis at pH 7.4, 10 μM

T1 sequence (P19156 2-1034 limits assumed): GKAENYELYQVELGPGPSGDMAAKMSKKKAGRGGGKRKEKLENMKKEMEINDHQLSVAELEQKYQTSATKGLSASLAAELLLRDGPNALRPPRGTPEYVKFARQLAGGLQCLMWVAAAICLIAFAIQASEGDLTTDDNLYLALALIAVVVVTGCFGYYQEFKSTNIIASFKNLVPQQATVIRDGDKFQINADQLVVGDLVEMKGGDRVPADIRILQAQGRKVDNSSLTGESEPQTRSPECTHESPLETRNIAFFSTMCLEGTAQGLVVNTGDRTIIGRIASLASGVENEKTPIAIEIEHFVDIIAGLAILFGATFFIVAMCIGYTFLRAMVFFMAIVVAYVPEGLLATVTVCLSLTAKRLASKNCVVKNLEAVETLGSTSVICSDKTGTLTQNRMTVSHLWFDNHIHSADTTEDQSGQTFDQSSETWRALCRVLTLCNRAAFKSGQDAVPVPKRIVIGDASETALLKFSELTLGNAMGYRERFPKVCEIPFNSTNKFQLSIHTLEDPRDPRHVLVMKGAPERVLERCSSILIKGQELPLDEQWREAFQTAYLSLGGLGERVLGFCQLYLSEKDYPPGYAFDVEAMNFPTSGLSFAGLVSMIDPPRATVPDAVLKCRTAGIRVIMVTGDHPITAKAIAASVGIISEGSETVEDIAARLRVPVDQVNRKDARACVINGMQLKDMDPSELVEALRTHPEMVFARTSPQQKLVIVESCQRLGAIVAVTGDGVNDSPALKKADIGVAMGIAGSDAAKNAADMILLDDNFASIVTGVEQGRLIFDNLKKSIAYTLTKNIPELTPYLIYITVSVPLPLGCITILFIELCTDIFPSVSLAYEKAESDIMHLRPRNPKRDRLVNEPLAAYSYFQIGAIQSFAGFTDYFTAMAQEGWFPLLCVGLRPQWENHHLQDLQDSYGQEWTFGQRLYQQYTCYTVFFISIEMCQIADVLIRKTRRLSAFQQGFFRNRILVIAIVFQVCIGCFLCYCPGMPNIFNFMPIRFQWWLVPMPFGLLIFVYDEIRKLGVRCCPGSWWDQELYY
T1 sequence (P18434 whole entry partner): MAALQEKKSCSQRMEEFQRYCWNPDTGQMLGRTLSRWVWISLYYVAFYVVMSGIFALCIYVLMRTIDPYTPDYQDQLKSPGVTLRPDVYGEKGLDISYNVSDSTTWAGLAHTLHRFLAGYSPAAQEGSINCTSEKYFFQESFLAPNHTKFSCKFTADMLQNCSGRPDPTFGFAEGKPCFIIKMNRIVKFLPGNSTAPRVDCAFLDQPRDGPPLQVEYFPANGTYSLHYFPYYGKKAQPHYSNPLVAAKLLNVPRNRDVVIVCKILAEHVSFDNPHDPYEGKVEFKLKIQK

Relative concentration of OMEPRAZOLE released in the plasma ([3]; 20 min after oral administration) | Relative concentration of OMEPRAZOLE released in the plasma ([3]; 40 min after oral administration) | Relative concentration of OMEPRAZOLE released in the plasma ([3]; 60 min after oral administration) | Relative concentration of OMEPRAZOLE released in the plasma ([3]; 80 min after oral administration) | time until OMEPRAZOLE has completely disappeared from the plasma ([3]; administrated to male rat (control)) | inhibition at 10 µM (gastric H,K-ATPase; [6]) | Compound | solubility in aqueous buffer (comparison) [1] | compound still present intact (without decomposition) [2] | inhibition of enzyme activity after 80 minutes (gastric H,K-ATPase; 10 μM) | inhibition of enzyme activity after 80 minutes (gastric H,K-ATPase; 50 μM) | inhibition of gastric H,K-ATPase activity after 5.75 hr hydrolysis (gastric H,K-ATPase; [6]) | inhibition of gastric H,K-ATPase activity after 5.75 hr hydrolysis (gastric H,K-ATPase; after 5.75 hr hydrolysis at pH 7.4, 10 μM, listed as 1-benzenesulfonyl-5-methoxy-2-[(3,5-dimethyl-4-methoxy-2-pyridyl)methylsulfinyl], 10 µM) | inhibition of gastric H,K-ATPase activity initially (before hydrolysis) (gastric H,K-ATPase) | inhibition of gastric H,K-ATPase activity initially (before hydrolysis) (gastric H,K-ATPase; listed as 1-benzenesulfonyl-5-methoxy-2-[(3,5-dimethyl-4-methoxy-2-pyridyl)methylsulfinyl]) | inhibition of histamine-stimulated acid output [4] | % inhibition of gastric acid secretion [5]
– | – | – | – | – | – | 1-Benzenesulfonyl-5-methoxy-2-[(3,5-dimethyl-4-methoxy-2-pyridyl)methylsulfinyl]-1H-benzimidazole and 1-Benzensulfonyl-6-methoxy-2-[(3,5-dimethyl-4-methoxy-2-pyridyl)methylsulfinyl]-1H-benzimidazole [Example 1] | slightly higher solubility in aqueous buffer than the compound of Example 19 | Approximately 90% | 10% | 50% | the same level of inhibition | 91% | failed to inhibit enzyme activity | did not inhibit | – | –
28 arbitrary unit | 4 arbitrary unit | 2 arbitrary unit | 1 arbitrary unit | ≤ 1.5 h | 91% | COc1ccc2[nH]c([S+]([O-])Cc3ncc(C)c(OC)c3C)nc2c1 (centres unmarked) [OMEPRAZOLE, 5-methoxy-2-[(3,5-dimethyl-4-methoxy-2-pyridyl)methylsulfinyl]-1H-benzimidazole, reference compound] | – | – | – | – | the same level of inhibition | – | – | – | 54.6% | 19.6% and 19.6 ± 3.9%
